# Reference: patent publication US20210361688A1 (priority 2020, published 2021)
# Legend:
# [1] = cited from earlier work
# [2] = Estimated ivermectin concentration delivered into the respiratory pathways per nebulization; set-up: species or system human; details: about 10% of nebulized solution reaches the respiratory pathways; approx. 3 mg into 150 cc dead space
# Description: 3 mL of the solution was administered to the subject directly into the lungs in the form of an inhalable mist.
# [3] = test system: pseudorabies virus (PRV); details: mouse, in vivo; cited from earlier work
# [4] = test system: SARS-CoV-2 isolate Australia/VIC01/2020; details: cited from earlier work
# [5] = ivermectin 5 μM from 2 hours post-infection, 24 h, Vero-hSLAM cells
substance,measurement,setting,value
ivermectin,tolerability of high doses,[1]; adults or children,well tolerated
same,maximum plasma concentration,"[1]; humans, highest reported dose of approximately 1700 μg/kg",0.28 µM
same,ivermectin delivered per cc of dead space per nebulization,[2],approximately 0.02 mg per cc
same,survival in PRV-infected mice,[3],increase survival
same,IC50 concentration necessary to inhibit viral replication,[4]; as quoted in Example 2,0.00175 mg/cc
same,"reduction in viral RNA versus DMSO control, cell associated viral RNA (total virus)",[4]; [5],99.8%
same,"reduction in viral RNA versus DMSO control, supernatant (released virions)",[4]; [5],93%
same,fold reduction of viral RNA,"[4]; ivermectin 5 μM, by hour 48, effect maintained at 72 hours",5000 fold
same,IC50,"[4]; serial dilutions of ivermectin, Vero-hSLAM cells, read-out: IC50 against SARS-CoV-2",~2000 nM
